Test results from patent publication US10278942B2 (PELOTON THERAPEUTICS, INC., priority 2015, dated 2019).
Like-named read-outs stand apart in the source and are kept apart here.

Columns and labels:
[1] = biological target: T1, HIF-2α HIS TAG-PASB Domain (Homo sapiens, UniProt Q99814); experiment: HIF-2α Scintillation Proximity Assay (SPA); format: binding
T1 construct: 100 nM HIF-2α HIS TAG-PASB Domain
Outline: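 IC50 values rest on percent inhibition, where the sample signal is scaled between high and low controls. Wells contain about 100 μL: compound dispensed as 2 μL of DMSO solution, 88 μL protein-probe mix and 10 μL of beads.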

786-O cells = experiment: VEGF ELISA Assay; format: cell-based; conditions: Homo sapiens, 786-0
Protocol: Each concentration was plated in duplicate. About 20 hours later, medium was removed by suction and each well was supplied with 180 μL of growth medium. About 20 μl freshly-made 10× compound stocks were added to each well. […] The EC50 was calculated by GraphPad Prism using the dose-response-inhibition (four parameter) equation. The cell-seeded plate was then subjected to CellTiter-Glo luminescence cell viability assay (Promega) by adding 50 μL of Celltiter Glo reagent into each well and shaking the plate for 8 minutes at 550 rpm (Thermomixer R, Eppendorf) then the luminescence signal immediately read in a plate reader (3 second delay, 0.5 second/well integration time, Synergy 2 multi Detection Microplate reader).

786-O-Hif-Luc cells = experiment: Luciferase Assay (HIF responsive elements reporter)
Protocol: A pool of infected cells were then selected against 2 μg/mL of puromycin (P8833, Sigma) for 10 days followed by limited dilution to select single clones. […] Each concentration was tested in triplicate. After about 24 hours, luciferase activity was determined using ONE-Glo Luciferase Assay Reagent (E6110, Promega) following the manufacturer's recommended procedure. EC50 were calculated using Dotmatics software.

[2] = read-out: Scintillation Proximity Assay IC50
[3] = read-out: Mean Luciferase EC50 (nM), 786-O-Hif-Luc cells
[4] = read-out: Mean Luciferase EC50 (nM)
[5] = Scintillation Proximity Assay IC50 (nM)

T1 sequence (Q99814 240-350 limits assumed): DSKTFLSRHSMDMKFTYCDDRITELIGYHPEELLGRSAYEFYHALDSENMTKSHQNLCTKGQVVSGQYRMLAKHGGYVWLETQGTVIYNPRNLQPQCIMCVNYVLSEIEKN

Structure (SMILES) | IC50 [1, 2] [nM] | EC50 (786-O cells) [nM] | EC50 (786-O-Hif-Luc cells; [3]) [nM] | EC50 (786-O-Hif-Luc cells; [4]) [nM] | IC50 [1, 5] [nM]
N#Cc1cc(F)cc(Oc2ccc(S(=O)(=O)C(F)F)cc2Br)c1 [Compound 132] | 250 to 1000 | 250 to 1000 | > 1000 |  | 
CS(=O)(=O)c1ccc(Oc2cc(Cl)cc(C#N)c2)c2c1[C@H](O)C(F)(F)C2 [Compound 234] |  | 50 to 249 |  | < 50 | 
C[C@@]1(O)c2c(ccc(Oc3cc(F)cc(C#N)c3)c2C#N)S(=O)(=O)C1(F)F [Compound 458] |  | < 50 | < 50 |  | 
O=S(=O)(c1ccc(Oc2cc(F)cc(Cl)c2)c(C(F)F)c1)C(F)(F)F [Compound 124] |  | 250 to 1000 |  | 250 to 1000 | 
O=S(=O)(c1ccc(Oc2cc(F)cc(Cl)c2)c(Cl)c1CO)C(F)F [Compound 41] |  | 250 to 1000 |  | 250 to 1000 | 
N#Cc1ccc(Oc2cc(F)cc(F)c2)c2c1[C@H](O)C(F)(F)C2 [Compound 67] |  | 50 to 249 |  |  | 
O[C@H]1c2c(C(F)(F)F)ncc(OC3CC(F)C3)c2C[C@H]1F (stereo partly drawn) [Compound 478] |  | < 50 | < 50 |  | 
O=S(=O)(c1ccc(Oc2cc(F)cc(Cl)c2)c2c1[C@H](O)CC2)C(F)F [Compound 1] |  | 250 to 1000 |  |  | 
CC1(O)c2c(ccc(Oc3cc(F)cc(C#N)c3)c2C#N)S(=O)(=O)C1(F)F (stereo not drawn) [Compound 451] |  | < 50 | < 50 |  | 
O=S1(=O)c2ccc(Oc3cc(F)cc(Cl)c3)c(Br)c2C(O)C1(F)F (stereo not drawn) [Compound 355] |  | 50 to 249 |  |  | < 50
N#Cc1cccc(Oc2ccc(S(=O)(=O)C(F)(F)F)c(C#N)c2Br)c1 [Compound 99] |  | 250 to 1000 | 250 to 1000 |  | 
CS(=O)(=O)c1ccc(OCC2(C#N)CC2)c2c1[C@H](O)C(F)(F)[C@@H]2F [Compound 754] | 250 to 1000 |  | > 1000 |  | 
N#Cc1cccc(Oc2ccc(S(=O)(=O)C(F)F)c(CO)c2Br)c1 [Compound 81] | 250 to 1000 |  | 250 to 1000 |  | 
OC1CCc2c(OCC(F)F)ccc(C(F)(F)F)c21 (stereo not drawn) [Compound 696] | 50 to 249 |  | 50 to 249 |  | 
CS(=O)(=O)c1ccc(OC[C@@H]2C[C@@H]2C#N)c2c1[C@H](O)C(F)(F)[C@@H]2F [Compound 764] | > 1000 |  | > 1000 |  | 
O=S1(=O)c2ccc(Oc3cc(F)cc(Cl)c3)c(Br)c2[C@@H](O)C1(F)F [Compound 403] |  |  |  | < 50 | < 50
O=S1(=O)CCC(Oc2ccc(S(=O)(=O)C(F)(F)F)c3c2CC(F)(F)[C@H]3O)CC1 [Compound 721] | > 1000 |  | > 1000 |  | 
N#Cc1cc(F)cc(Nc2ccc(S(=O)(=O)C(F)(F)F)c3c2CCC3O)c1 (stereo not drawn) [Compound 505] | 250 to 1000 |  | 250 to 1000 |  | 
CS(=O)(=O)c1ccc(Oc2cc(F)cc(C#N)c2)c2c1[C@H](O)C(F)(F)[C@@H]2O [Compound 312] | 50 to 249 |  | 250 to 1000 |  | 
N#Cc1cc(F)cc(Oc2ccc(S(=O)(=O)C(F)F)c3c2CC[C@H]3O)c1 [Compound 155] |  | 50 to 249 |  | 50 to 249 | 
N#CN=S1(=O)c2ccc(Oc3cc(F)cc(F)c3)c(Cl)c2[C@@H](O)C1(F)F (stereo partly drawn) [Compound 412] | 50 to 249 |  | > 1000 |  | 

Structure (SMILES) | IC50 [1, 2] [nM] | EC50 (786-O cells) [nM] | EC50 (786-O-Hif-Luc cells; [3]) [nM] | EC50 (786-O-Hif-Luc cells; [4]) [nM] | IC50 [1, 5] [nM]
O=S(=O)(c1ccc(-c2ccccc2Cl)c2c1[C@H](O)C(F)(F)C2)C(F)(F)F [Compound 565] | > 1000 |  | > 1000 |  | 
N#Cc1cc(S(=O)(=O)C(F)F)ccc1Oc1cc(F)cc(Cl)c1 [Compound 133] | 250 to 1000 | > 1000 |  |  | 
O=S(=O)(c1ccc(OCc2ccccc2)c2c1[C@H](O)C(F)(F)C2)C(F)F [Compound 780] | > 1000 |  | > 1000 |  | 
O=S(=O)(c1ccc(Oc2cc(F)cc(Cl)c2)c2c1C(O)CC2)C(F)F (stereo not drawn) [Compound 17] |  | 50 to 249 |  |  | 
O=S(=O)(c1ccc(OC2CCC2)c2c1C(O)CC2)C(F)(F)F (stereo not drawn) [Compound 601] | 250 to 1000 |  | > 1000 |  | 
O=S(=O)(c1ccc(Oc2c(F)ccc3[nH]ncc23)c2c1[C@H](O)C(F)(F)C2)C(F)(F)F [Compound 264] | 250 to 1000 |  | > 1000 |  | 
O/N=C1/c2c(C(F)(F)F)ccc(OC3CC(F)(F)C3)c2CC1(F)F [Compound 672] | 50 to 249 |  | > 1000 |  | 
O[C@H]1c2c(C(F)(F)F)ccc(OCCCF)c2[C@H](F)C1(F)F [Compound 701] | 50 to 249 |  | > 1000 |  | 
CS(=O)(=O)c1ccc(OCC(F)F)c2c1[C@H](O)C(F)(F)[C@@H]2F [Compound 755] | 50 to 249 |  | > 1000 |  | 
CCCOc1ccc(I)c2c1C[C@@H](F)[C@H]2O [Compound 683] | > 1000 |  | > 1000 |  | 
CC1(C)CCC(=O)[C@H](c2ccc(S(=O)(=O)C(F)(F)F)c3c2CC(F)(F)[C@H]3O)C1 [Compound 542] | 250 to 1000 |  | > 1000 |  | 
O=S(=O)(c1ccc(Oc2cc(F)cc(Cl)c2)c(Br)c1CNCc1ccccc1)C(F)(F)F [Compound 110] | > 1000 |  | > 1000 |  | 
N=S(=O)(c1ccc(Oc2cc(F)cc(Cl)c2)c(Br)c1Cl)C(F)(F)F (stereo not drawn) [Compound 75] | 50 to 249 |  | > 1000 |  | 
N#Cc1cncc(Oc2ccc(S(=O)(=O)C(F)(F)F)c3c2CCC3O)c1 (stereo not drawn) [Compound 220] | 250 to 1000 |  | > 1000 |  | 
CS(=O)(=O)c1ccc(Oc2cc(F)cc(C#N)c2)c2c1C(=O)C(F)(Cl)C2 (stereo not drawn) [Compound 269] | 250 to 1000 |  | > 1000 |  | 
N#Cc1cc(F)cc(Oc2ccc(S(=O)(=O)C(F)(F)F)cc2C#N)c1 [Compound 120] | 250 to 1000 |  | > 1000 |  | 
CS(=O)(=O)c1ccc(OC2CCC(F)(F)CC2)c2c1[C@H](O)C(F)(F)[C@@H]2F [Compound 771] | 50 to 249 |  | 250 to 1000 |  | 
O=S(=O)(c1ccc(Oc2ccc(F)cc2)c2c1C(O)CC2)C(F)(F)F (stereo not drawn) [Compound 212] | 250 to 1000 |  | > 1000 |  | 
Cc1c(Oc2cc(F)cc(C#N)c2)ccc(S(=O)(=O)C(F)(F)F)c1C=O [Compound 145] | 50 to 249 |  | 250 to 1000 |  | 
N#Cc1cc(F)cc(Oc2ccc(S(=O)(=O)C(F)(F)F)c3c2[C@@H](N)C[C@H]3O)c1 [Compound 279] | > 1000 |  | > 1000 |  | 
C[C@]1(C#N)C[C@H](Oc2ccc(S(=O)(=O)C(F)(F)F)c3c2C[C@H](F)[C@H]3O)C1 [Compound 795] | 50 to 249 |  | 50 to 249 |  | 

The next lines start with results.

IC50 [1, 2] [nM] | EC50 (786-O cells) [nM] | EC50 (786-O-Hif-Luc cells; [3]) [nM] | Structure (SMILES) | EC50 (786-O-Hif-Luc cells; [4]) [nM] | IC50 [1, 5] [nM]
50 to 249 | 250 to 1000 | 250 to 1000 | O=[N+]([O-])c1c(Oc2cc(F)cc(Cl)c2)ccc(C(F)(F)F)c1Cl [Compound 203] |  | 
< 50 | 50 to 249 | 50 to 249 | O=S(=O)(c1ccc(OCC2COC2)c2c1[C@H](O)C(F)(F)C2)C(F)(F)F [Compound 713] |  | 
< 50 | < 50 | < 50 | N#Cc1cc(F)cc(Oc2ccc(C(F)(F)F)c3c2CC(F)(F)[C@H]3O)c1 [Compound 273] |  | 
< 50 | 50 to 249 | < 50 | CS(=O)(=NC#N)c1ccc(Oc2cc(F)cc(C#N)c2)c2c1[C@H](O)C(F)(F)C2 (single isomer, unassigned) [Compound 240] |  | 
< 50 | < 50 | < 50 | O=S(=O)(c1ccc(OC2CCC2)c2c1[C@H](O)C(F)(F)C2)C(F)(F)F [Compound 657] |  | 
< 50 | > 1000 |  | O=S(=O)(c1ccc(Oc2cc(F)cc(Cl)c2)c(Br)c1Cl)C(F)(F)F [Compound 179] |  | 
50 to 249 | 250 to 1000 |  | O=S(=O)(c1ccc(Oc2cc(F)cc(Cl)c2)c(Br)c1CO)C(F)(F)F [Compound 102] |  | 
50 to 249 | > 1000 |  | N#Cc1cc(F)cc(Oc2ccc(S(=N)(=O)CF)c3c2CC(F)(F)[C@H]3O)c1 (stereo partly drawn) [Compound 274] |  | 
50 to 249 |  | > 1000 | O=C1c2c(S(=O)(=O)C(F)F)ccc(Oc3ccc(F)c(F)c3)c2CC1(F)F [Compound 195] |  | 
50 to 249 |  | 50 to 249 | O=S(=O)(c1ccc(OC2CCOC2)c2c1C(O)C(F)(F)C2)C(F)(F)F (stereo not drawn) [Compound 604] |  | 
< 50 |  | < 50 | O=S(=O)(c1ccc(OCC2CCC2)c2c1[C@H](O)C(F)(F)C2)C(F)(F)F [Compound 716] |  | 
< 50 |  | > 1000 | N#CN=S1(=O)c2ccc(Oc3cc(F)cc(F)c3)c(C(F)F)c2C(O)C1(F)F (stereo not drawn) [Compound 397] |  | 
< 50 |  | 250 to 1000 | Cc1cc(Oc2ccc(S(=O)(=O)C(F)F)c3c2CC(F)(F)[C@H]3O)ccc1F [Compound 198] |  | 
< 50 |  | 50 to 249 | COc1cc(F)cc(Oc2ccc(S(=O)(=O)C(F)F)c3c2CC[C@H]3O)c1 [Compound 6] |  | 
< 50 |  | 250 to 1000 | CS(=O)(=O)c1ccc(OCC2CC2(F)F)c2c1[C@H](O)C(F)(F)[C@@H]2F (stereo partly drawn) [Compound 756] |  | 
< 50 |  | 50 to 249 | CC1(C)C[C@H](O)C[C@@H](c2ccc(S(=O)(=O)C(F)(F)F)c3c2CC(F)(F)[C@H]3O)C1 [Compound 549] |  | 
< 50 |  | > 1000 | O=S(=O)(c1ccc(-c2cccc(Cl)c2)c2c1[C@H](O)C(F)(F)C2)C(F)(F)F [Compound 485, (S)-4-(3-chlorophenyl)-2,2-difluoro-7-((trifluoromethyl)sulfonyl)-2,3-dihydro-1H-inden-1-ol] |  | 
< 50 |  | < 50 | N#Cc1cccc(Oc2ccc3c(c2C(F)F)[C@@H](O)C(F)(F)S3(=O)=O)c1 [Compound 435] |  | 
